Common to all, as to type: cell-based
In one test the test system is Enterobacter cloacae. Nature of the test: MIC against Gram-negative bacteria: Enterobacter cloacae. The settings on record: 5×10^5 CFU/mL. The procedure, abridged:
(§1)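 Growth inhibition by human EGF domain proteins was scored in LB liquid culture seeded at 5×10^5 CFU/mL. Protein was applied as a two-fold dilution series in triplicate, with shaking incubation at 37° C; MIC is the lowest concentration giving no growth.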

A further test concerns E. coli BL21. Nature of the test: MIC against Gram-negative bacteria: E. coli BL21. The conditions noted are these: 5×10^5 CFU/mL. The procedure, abridged:
as §1

For a further test, the system named is Moraxella catarrhalis. The test is described as follows: MIC against Gram-negative bacteria: Moraxella catarrhalis. The conditions noted are these: 5×10^5 CFU/mL. The essentials:
as §1

The next test deals with Pseudomonas aeruginosa. The test is described as follows: MIC against Gram-negative bacteria: Pseudomonas aeruginosa. The settings on record: 5×10^5 CFU/mL. The essentials:
as §1

A further test relates to Proteus mirabilis. The test is described as follows: MIC against Gram-negative bacteria: Proteus mirabilis. The settings on record: 5×10^5 CFU/mL. The essentials:
as §1

A further test deals with E. coli DH5α. Nature of the test: Antibacterial activity: MIC and growth curve against E. coli DH5α in 96-well plate. The conditions noted are these: minimal inhibitory concentration against E. coli DH5α; 96-well plate, 5×10^5 CFU/mL, 37° C., judged after 8 h. The essentials: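 Log-phase DH5α (OD600 about 0.5, 37° C, 185 rpm in LB) was pelleted, resuspended in fresh LB and seeded at 5×10^5 CFU/mL with recombinant protein at 50, 25 and 12.5 μg/mL (two-fold series), in triplicate. Plates were shaken at 175 rpm, 37° C, and OD600 was read every 30 min. MIC was the lowest concentration with no growth.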

Another test relates to Citrobacter diversus. The test is described as follows: MIC against Gram-negative bacteria: Citrobacter diversus. The conditions noted are these: 5×10^5 CFU/mL. The essentials:
as §1

The test system of the next test is Klebsiella pneumonia. Nature of the test: MIC against Gram-negative bacteria: Klebsiella pneumonia. The conditions noted are these: 5×10^5 CFU/mL. The essentials: as §1
For a further test, the system named is Serratia marcescens. The test is described as follows: MIC against Gram-negative bacteria: Serratia marcescens. The settings on record: 5×10^5 CFU/mL. The procedure, abridged: as §1
Another test concerns Aeromonas hydrophila. The test is described as follows: MIC against Gram-negative bacteria: Aeromonas hydrophila. The conditions noted are these: 5×10^5 CFU/mL. The essentials:
as §1

For the next test, the system named is Proteus vulgaris. The test is described as follows: MIC against Gram-negative bacteria: Proteus vulgaris. The conditions noted are these: 5×10^5 CFU/mL. The essentials: as §1
[1] abbreviates: E. cloacae, 10 h cultivation at 37° C.
Setting [2] is: E. coli BL21, 10 h cultivation at 37° C.
Where [3] appears, read: M. catarrhalis, 10 h cultivation at 37° C.
[4] abbreviates: P. aeruginosa, 10 h cultivation at 37° C.
[5] abbreviates: P. mirabilis, 10 h cultivation at 37° C.
Setting [6] is: C. diversus, 10 h cultivation at 37° C.
Where [7] appears, read: K. pneumonia, 10 h cultivation at 37° C.
The mark [8] stands for this setting: S. marcescens, 10 h cultivation at 37° C.
[9] abbreviates: A. hydrophila, 10 h cultivation at 37° C.
Where [10] appears, read: P. vulgaris, 10 h cultivation at 37° C.

As a reminder, the MIC is the lowest concentration that inhibits growth of the organism. The low end stands for inhibition by little substance, the high end for a need for much substance.

“PRT829 (FGPSCTLHCDCGGGADCDPVSGQCHCVDGYMGPTCR; listed as Homo sapiens)”: the “MIC (μg/mL) E. cloacae” value in the test on Enterobacter cloacae (setting [1]) was 50 µg/mL. Also, in the test on E. coli BL21 (setting [2]), the “MIC (μg/mL) E. coli BL21” value came to 25 µg/mL. The “MIC (μg/mL) M. catarrhalis” value against Moraxella catarrhalis (setting [3]) turned out to be 25 µg/mL. Further, the “MIC (μg/mL) P. aeruginosa” value in the test with Pseudomonas aeruginosa (setting [4]) is 12.5 µg/mL. In addition, in the test on Proteus mirabilis (setting [5]), the “MIC (μg/mL) P. mirabilis” value amounted to 50 µg/mL. This substance showed a minimal inhibitory concentration (MIC) against E. coli DH5α of 50 µg/mL. In addition, the “MIC (μg/mL) C. diversus” value against Citrobacter diversus (setting [6]) is 12.5 µg/mL. For the same substance, the “MIC (μg/mL) K. pneumonia” value in the test on Klebsiella pneumonia (setting [7]) amounted to 25 µg/mL. In the test on Serratia marcescens (setting [8]), the “MIC (μg/mL) S. marcescens” value was 12.5 µg/mL. Moreover, in the test on Aeromonas hydrophila (setting [9]), the “MIC (μg/mL) A. hydrophila” value stood at 25 µg/mL. In addition, in the test on Proteus vulgaris (setting [10]), the “MIC (μg/mL) P. vulgaris” value turned out to be 12.5 µg/mL.

Regarding “PRT1395 (DCPRNCHGNGECVSGVCHCFPGFLGADCA; listed as Homo sapiens)”, the “MIC against E. cloacae” value with Enterobacter cloacae (Enterobacter cloacae, 10 h cultivation at 37° C.) is 12.5 µg/mL. In addition, in the test on E. coli BL21 (setting [2]), the “MIC against E. coli BL21” value is 25 µg/mL. Further, in the test with Moraxella catarrhalis (Moraxella catarrhalis, 10 h cultivation at 37° C.), the “MIC against M. catarrhalis” value was found to be 12.5 µg/mL. Besides, in the test with Pseudomonas aeruginosa (Pseudomonas aeruginosa, 10 h cultivation at 37° C.), the “MIC against P. aeruginosa” value came to 12.5 µg/mL. In the test with Proteus mirabilis (Proteus mirabilis, 10 h cultivation at 37° C.), the “MIC against P. mirabilis” value worked out at 12.5 µg/mL. Besides, the minimal inhibitory concentration (MIC) against E. coli DH5α was 12.5 µg/mL. The “MIC against C. diversus” value in the test with Citrobacter diversus (Citrobacter diversus, 10 h cultivation at 37° C.) stood at 12.5 µg/mL. Besides, the “MIC against K. pneumonia” value in the test with Klebsiella pneumonia (Klebsiella pneumonia, 10 h cultivation at 37° C.) turned out to be 25 µg/mL. In addition, the “MIC against S. marcescens” value in the test with Serratia marcescens (Serratia marcescens, 10 h cultivation at 37° C.) turned out to be 25 µg/mL. Also, the “MIC against A. hydrophila” value with Aeromonas hydrophila (Aeromonas hydrophila, 10 h cultivation at 37° C.) came to 100 µg/mL. Moreover, the “MIC against P. vulgaris” value against Proteus vulgaris (Proteus vulgaris, 10 h cultivation at 37° C.) is 12.5 µg/mL.

With “PRT251 (FSHLCLEDHNSYCINGACAFHHELEKAICRCFTGYTGERCE; listed as Homo sapiens)”, the “MIC (μg/mL) E. cloacae” value in the test on Enterobacter cloacae (setting [1]) was 25 µg/mL. In the test with E. coli BL21 (setting [2]), the “MIC (μg/mL) E. coli BL21” value worked out at 12.5 µg/mL. Besides, the “MIC (μg/mL) M. catarrhalis” value against Moraxella catarrhalis (setting [3]) was 12.5 µg/mL. Further, in the test with Pseudomonas aeruginosa (setting [4]), the “MIC (μg/mL) P. aeruginosa” value came to 25 µg/mL. In addition, the “MIC (μg/mL) P. mirabilis” value with Proteus mirabilis (setting [5]) turned out to be 12.5 µg/mL. In the test on E. coli DH5α, this substance had a minimal inhibitory concentration (MIC) of 25 µg/mL. Besides, the “MIC (μg/mL) C. diversus” value with Citrobacter diversus (setting [6]) worked out at 25 µg/mL. The “MIC (μg/mL) K. pneumonia” value against Klebsiella pneumonia (setting [7]) was 12.5 µg/mL. The “MIC (μg/mL) S. marcescens” value in the test with Serratia marcescens (setting [8]) was determined as 12.5 µg/mL. Moreover, the “MIC (μg/mL) A. hydrophila” value against Aeromonas hydrophila (setting [9]) came out at 12.5 µg/mL. Further, the “MIC (μg/mL) P. vulgaris” value against Proteus vulgaris (setting [10]) stood at 12.5 µg/mL.

As to “PRT646 (DIDECTQVQHLCSQGRCENTEGSFLCICPAGFMASEEGTNCI; listed as Homo sapiens)”, the “MIC E. cloacae” value with Enterobacter cloacae (96-well plate, 37° C., 10 h) came out at 12.5 µg/mL. For the same substance, the “MIC E. coli BL21” value against E. coli BL21 (96-well plate, 37° C., 10 h) is 12.5 µg/mL. The “MIC M. catarrhalis” value in the test on Moraxella catarrhalis (96-well plate, 37° C., 10 h) came to 25 µg/mL. For the same substance, the “MIC P. aeruginosa” value with Pseudomonas aeruginosa (96-well plate, 37° C., 10 h) was determined as 12.5 µg/mL. Moreover, the “MIC P. mirabilis” value against Proteus mirabilis (96-well plate, 37° C., 10 h) turned out to be 12.5 µg/mL. In the test with E. coli DH5α, this substance displayed a minimal inhibitory concentration (MIC) of 12.5 µg/mL. Moreover, in the test with Citrobacter diversus (96-well plate, 37° C., 10 h), the “MIC C. diversus” value came to 50 µg/mL. Further, in the test with Klebsiella pneumonia (96-well plate, 37° C., 10 h), the “MIC K. pneumonia” value is 12.5 µg/mL. Moreover, the “MIC S. marcescens” value with Serratia marcescens (96-well plate, 37° C., 10 h) was 50 µg/mL. In addition, in the test with Aeromonas hydrophila (96-well plate, 37° C., 10 h), the “MIC A. hydrophila” value came to 25 µg/mL. In the test on Proteus vulgaris (96-well plate, 37° C., 10 h), the “MIC P. vulgaris” value stood at 25 µg/mL.

“PRT59 (PCTVGDASACLTCAPDNRTRCGTCNTGYMLSQGLCK; listed as Homo sapiens)”: the “MIC (μg/mL) E. cloacae” value in the test with Enterobacter cloacae (Enterobacter cloacae, 96-well plate, 37° C., 10 h) was 25 µg/mL. Besides, in the test on E. coli BL21 (E. coli BL21, 96-well plate, 37° C., 10 h), the “MIC (μg/mL) E. coli BL21” value turned out to be 12.5 µg/mL. In addition, in the test with Moraxella catarrhalis (Moraxella catarrhalis, 96-well plate, 37° C., 10 h), the “MIC (μg/mL) M. catarrhalis” value amounted to 12.5 µg/mL. The “MIC (μg/mL) P. aeruginosa” value against Pseudomonas aeruginosa (Pseudomonas aeruginosa, 96-well plate, 37° C., 10 h) was 25 µg/mL. Also, the “MIC (μg/mL) P. mirabilis” value with Proteus mirabilis (Proteus mirabilis, 96-well plate, 37° C., 10 h) worked out at 25 µg/mL. For the same substance, the MIC with E. coli DH5α stood at 25 µg/mL. The “MIC (μg/mL) C. diversus” value in the test with Citrobacter diversus (Citrobacter diversus, 96-well plate, 37° C., 10 h) was 25 µg/mL. In addition, the “MIC (μg/mL) K. pneumonia” value in the test with Klebsiella pneumonia (Klebsiella pneumonia, 96-well plate, 37° C., 10 h) turned out to be 50 µg/mL. In the test with Serratia marcescens (Serratia marcescens, 96-well plate, 37° C., 10 h), the “MIC (μg/mL) S. marcescens” value is 12.5 µg/mL. Besides, in the test on Aeromonas hydrophila (Aeromonas hydrophila, 96-well plate, 37° C., 10 h), the “MIC (μg/mL) A. hydrophila” value worked out at 12.5 µg/mL. The “MIC (μg/mL) P. vulgaris” value in the test with Proteus vulgaris (Proteus vulgaris, 96-well plate, 37° C., 10 h) turned out to be 12.5 µg/mL.

Values taken from US9833497B2, “Human originated EGF domain proteins and use of the same” (CHENGDU SOURCEBIO LIMITED-LIABILITY COMPANY, priority 2013, dated 2017).
